Results from patent US8058437B2, “(Pyrroloquinoxalinyl) pyrazinecarbohydrazide-oxalic acid co-crystal for treatment of cancer and other diseases” (Novelix Pharmaceuticals, Inc., priority 2008, dated 2011).
“And” between values parts separate entries of the source, which are not always exact repeats. Equal values may be shown once. Read-outs that look alike come from different tables or passages of the source.

Assays:
[1] = Salt formation experiments / physical characteristics of solid forms; format: physicochemical; details: free base prepared from NVX-144.HCl; salt formation with acids
Protocol: Thus, a series of experiments was conducted to assess the preparation of NVX-144 salts of acids other than hydrochloric acid as possible novel compounds better suited to pharmaceutical preparations. […] As expected, NVX-144 base readily formed salts with strong organic acids.
Although oxalic acid co-crystals are rare, Trask et al. have reported a co-crystal of caffeine with oxalic acid (see Trask et al., “Pharmaceutical Cocrystallization: Engineering a Remedy for Caffeine Hydration,” Crystal Growth & Design, 5, 1013-21 (2005)).
Thus NVX-144 would not be expected to form a salt with oxalic acid, a relatively strong dicarboxylic acid.

[2] = Pharmacokinetic experiments in rats (IV, oral suspension, oral solution); format: in vivo; details: rat; for concentration at 0.5 h / concentration at 1 h / concentration at 4 h / concentration at 8 h: oral; for bioavailability: adjusted for dose
Protocol: The oral suspension formulation was prepared by suspending the test article in 5% PEG-200/95% of a 0.5% solution of methylcellulose. The concentration of the test article was such that a dosing volume of 10 mL/kg delivered the intended dose level. The oral solution formulations of NVX-144 and NVX-412 were prepared by dissolving the test article in 10% by volume dimethyl acetamide, followed by 60% by volume PEG-400, and then adding slowly a solution of 30% Captisol® in 50 mM lactic acid to provide the remaining 30% of volume. The concentration of the test article was such that a dosing volume of 10 mL/kg delivered the intended dose level. The IV formulation of NVX-412 was prepared by dissolving the test article in 10% by volume dimethyl acetamide, followed by 10% by volume PEG-400, and then adding slowly a solution of 10% Captisol® in 50 mM lactic acid to provide the remaining 80% of volume. The concentration of the test articles was such that a dosing volume of 2.5 mL/kg delivered the intended dose level. The doses administered were based on the body weight of each animal taken shortly before dosing. The formulations were used immediately after preparation.
A total of 15 rats were assigned to the study. Five groups of three male rats each comprised the study. Each group was treated once by oral gavage or intravenous injection via the tail vein as specified in Table 3 below.
The animals were fasted overnight prior to dosing and the feed returned approximately 2 hours post-dosing. The dose for each animal was based on the most recent body weight. Oral doses were administered by gavage. Animals received 10 mL/kg per single oral dose. Intravenous doses were administered by tail vein injection. The dose for each animal was based on the most recent body weight. Animals were dosed at 2.5 mL/kg per single intravenous dose.
Blood was collected from the animals in Groups 1 through 5 for pharmacokinetic analysis. Approximately 0.3 mL of blood was collected in potassium EDTA tubes via the orbital plexus at four time points (30 minutes, 1 hour, 4 hours, and 8 hours post-dose) from each rat treated by the oral route, and the blood samples were processed to prepare plasma. Blood was collected at four time points (5 minutes, 30 minutes, 1 hour, and 2 hours post-dose) from each rat treated by the intravenous route, and the blood samples were processed to prepare plasma. Animals were terminated (without necropsy) following their final sample collection.
The whole blood samples were centrifuged (˜1500×g) for a minimum of 10 minutes in a refrigerated centrifuge (set at ˜5° C.). Plasma was prepared and transferred within 30 minutes of blood collection/centrifugation to appropriately labeled tubes. The tubes were then frozen and stored in the dark at ≦−70° C. until analysis. The plasma samples were analyzed by LC-MS/MS to determine the plasma concentrations of NVX-144 and NVX-412. Pharmacokinetic analysis of the plasma concentration data was conducted using non-compartmental analysis with WinNonlin Version 4.1.

[3] = male, plasma, po, 20 mg/kg, Group 2, PO-Suspension 20 mg/kg, Mean N=3
[4] = male, plasma, po, 20 mg/kg, Group 2, PO-Suspension 20 mg/kg, individual animals
[5] = male, plasma, po, 20 mg/kg, Group 4, PO-Solution 20 mg/kg, Mean N=3
[6] = male, plasma, po, 20 mg/kg, Group 4, PO-Solution 20 mg/kg, individual animals
[7] = Group 2, PO-Suspension 20 mg/kg, Mean N=3, listed as NVX-144 Free Base
[8] = Group 2, PO-Suspension 20 mg/kg, individual animals, listed as NVX-144 Free Base
[9] = Group 4, PO-Solution 20 mg/kg, Mean N=3, listed as NVX-144 Free base
[10] = Group 4, PO-Solution 20 mg/kg, individual animals, listed as NVX-144 Free base

basicity [1]: very weak base
concentration at 0.5 h ([2]; male, plasma, 20 mg/kg, Group 2, PO-Suspension 20 mg/kg, 0.5 hr, Mean): 479 ng/mL
concentration at 0.5 h ([2]; male, plasma, 20 mg/kg, Group 2, PO-Suspension 20 mg/kg, 0.5 hr, individual animals): 436 ng/mL
concentration at 1 h ([2]; male, plasma, 20 mg/kg, Group 2, PO-Suspension 20 mg/kg, 1 hr, Mean): 427 ng/mL
concentration at 4 h ([2]; male, plasma, 20 mg/kg, Group 2, PO-Suspension 20 mg/kg, 4 hr, Mean): 227 ng/mL
concentration at 4 h ([2]; male, plasma, 20 mg/kg, Group 2, PO-Suspension 20 mg/kg, 4 hr, individual animals): 270 ng/mL
concentration at 8 h ([2]; male, plasma, 20 mg/kg, Group 2, PO-Suspension 20 mg/kg, 8 hr, Mean): 10.9 ng/mL
concentration at 0.5 h ([2]; male, plasma, 20 mg/kg, Group 4, PO-Solution 20 mg/kg, 0.5 hr, Mean): 709 ng/mL
concentration at 0.5 h ([2]; male, plasma, 20 mg/kg, Group 4, PO-Solution 20 mg/kg, 0.5 hr, individual animals): 691 ng/mL
concentration at 1 h ([2]; male, plasma, 20 mg/kg, Group 4, PO-Solution 20 mg/kg, 1 hr, Mean): 643 ng/mL
concentration at 1 h ([2]; male, plasma, 20 mg/kg, Group 4, PO-Solution 20 mg/kg, 1 hr, individual animals): 570 ng/mL
concentration at 4 h ([2]; male, plasma, 20 mg/kg, Group 4, PO-Solution 20 mg/kg, 4 hr, Mean): 225 ng/mL
concentration at 4 h ([2]; male, plasma, 20 mg/kg, Group 4, PO-Solution 20 mg/kg, 4 hr, individual animals): 289 ng/mL
concentration at 8 h ([2]; male, plasma, 20 mg/kg, Group 4, PO-Solution 20 mg/kg, 8 hr, Mean): 31.5 ng/mL
AUC [2, 3]: 1800 ng·h/mL
AUC(0-inf) [2, 3]: 1830 ng·h/mL
Cmax ([2]; male, plasma, po, 20 mg/kg, Group 2, PO-Suspension 20 mg/kg, Mean N=3, read-out: Cmax): 487 ng/mL
half-life ([2]; male, plasma, po, 20 mg/kg, Group 2, PO-Suspension 20 mg/kg, Mean N=3, read-out: T ½ (converted)): 1.4 h
Tmax ([2]; male, plasma, po, 20 mg/kg, Group 2, PO-Suspension 20 mg/kg, Mean N=3, read-out: Tmax): 0.67 h
bioavailability ([2]; male, plasma, po, 20 mg/kg, Group 2, PO-Suspension 20 mg/kg, Mean N=3, versus mean IV AUCINF, read-out: Bioavailability): 34.7%
AUC [2, 4]: 1690 ng·h/mL
AUC(0-inf) [2, 4]: 1720 ng·h/mL
Cmax ([2]; male, plasma, po, 20 mg/kg, Group 2, PO-Suspension 20 mg/kg, individual animals, read-out: Cmax): 436 ng/mL
half-life ([2]; male, plasma, po, 20 mg/kg, Group 2, PO-Suspension 20 mg/kg, individual animals, read-out: T ½ (converted)): 1.66 h
Tmax ([2]; male, plasma, po, 20 mg/kg, Group 2, PO-Suspension 20 mg/kg, individual animals, read-out: Tmax): 0.5 to 1 h
bioavailability ([2]; male, plasma, po, 20 mg/kg, Group 2, PO-Suspension 20 mg/kg, individual animals, versus mean IV AUCINF, read-out: Bioavailability): 32.8%
AUC [2, 5]: 2330 ng·h/mL
AUC(0-inf) [2, 5]: 2520 ng·h/mL
Cmax ([2]; male, plasma, po, 20 mg/kg, Group 4, PO-Solution 20 mg/kg, Mean N=3, read-out: Cmax): 714 ng/mL
half-life ([2]; male, plasma, po, 20 mg/kg, Group 4, PO-Solution 20 mg/kg, Mean N=3, read-out: T ½ (converted)): 1.6 h
Tmax ([2]; male, plasma, po, 20 mg/kg, Group 4, PO-Solution 20 mg/kg, Mean N=3, read-out: Tmax): 0.67 h
bioavailability ([2]; male, plasma, po, 20 mg/kg, Group 4, PO-Solution 20 mg/kg, Mean N=3, versus mean IV AUCINF, read-out: Bioavailability): 46.1%
AUC [2, 6]: 2500 ng·h/mL
AUC(0-inf) [2, 6]: 2760 ng·h/mL
Cmax ([2]; male, plasma, po, 20 mg/kg, Group 4, PO-Solution 20 mg/kg, individual animals, read-out: Cmax): 691 ng/mL
Tmax ([2]; male, plasma, po, 20 mg/kg, Group 4, PO-Solution 20 mg/kg, individual animals, read-out: Tmax): 0.5 to 1 h
bioavailability ([2]; male, plasma, po, 20 mg/kg, Group 4, PO-Solution 20 mg/kg, individual animals, versus mean IV AUCINF, read-out: Bioavailability): 52.6%
plasma concentration ([2]; Group 2, PO-Suspension 20 mg/kg, 0.5 hr, individual animals, listed as NVX-144 Free Base): 428.07 ng/mL and 571.69 ng/mL
plasma concentration ([2]; Group 2, PO-Suspension 20 mg/kg, 4 hr, individual animals, listed as NVX-144 Free Base): 234.64 ng/mL and 175.82 ng/mL
AUC % Extrap ([2]; Group 2, PO-Suspension 20 mg/kg, Mean N=3): 1.32%
AUCINF [2, 7]: 1826.45 ng·h/mL
Cmax [2, 7]: 487.28 ng/mL
T ½ [2, 7]: 1.39 h
AUC % Extrap [2, 8]: 2.08% and 1.48% and 0.4%
AUCINF [2, 8]: 1789.00 ng·h/mL and 1965.88 ng·h/mL
AUCall [2, 8]: 1762.55 ng·h/mL and 1958.03 ng·h/mL
Cmax [2, 8]: 428.07 ng/mL and 597.75 ng/mL
T ½ [2, 8]: 1.49 h and 1.01 h
Tmax [2, 8]: 0.5 h and 1.0 h
bioavailability ([2]; Group 2, PO-Suspension 20 mg/kg, individual animals, versus mean IV AUCINF, listed as NVX-144 Free Base): 34.0% and 37.4%
plasma concentration ([2]; Group 4, PO-Solution 20 mg/kg, 0.5 hr, individual animals, listed as NVX-144 Free Base): 610.62 ng/mL and 824.32 ng/mL
plasma concentration ([2]; Group 4, PO-Solution 20 mg/kg, 1 hr, individual animals, listed as NVX-144 Free Base): 626.73 ng/mL and 731.54 ng/mL
plasma concentration ([2]; Group 4, PO-Solution 20 mg/kg, 4 hr, individual animals, listed as NVX-144 Free Base): 163.62 ng/mL and 221.82 ng/mL
AUC % Extrap ([2]; Group 4, PO-Solution 20 mg/kg, Mean N=3): 3.61%
AUCINF [2, 9]: 2426.28 ng·h/mL
Cmax [2, 9]: 713.93 ng/mL
T ½ [2, 9]: 1.56 h
AUC % Extrap [2, 10]: 9.41% and 0.41% and 1.00%
AUCINF [2, 10]: 1994.04 ng·h/mL and 2521.47 ng·h/mL
AUCall [2, 10]: 1985.89 ng·h/mL and 2496.24 ng·h/mL
Cmax [2, 10]: 626.73 ng/mL and 824.32 ng/mL
T ½ [2, 10]: 2.39 h and 1.01 h and 1.27 h
Tmax [2, 10]: 0.5 h and 1.0 h
bioavailability ([2]; Group 4, PO-Solution 20 mg/kg, individual animals, versus mean IV AUCINF, listed as NVX-144 Free base): 37.9% and 48.0%
oral absorption ([2]; administered as a solution or suspension): moderate
Compound: O=C(NNc1nc2cc(F)ccc2n2cccc12)c1cnccn1 [NVX-144, N′-(7-fluoropyrrolo[1,2a]quinoxalin-4-yl)pyrazine-2-carbohydrazide, reference compound]
plasma concentration ([2]; Group 2, PO-Suspension 20 mg/kg, 1 hr, individual animals, listed as NVX-144 Free Base): 282.56 ng/mL and 401.49 ng/mL and 597.75 ng/mL
plasma concentration ([2]; Group 2, PO-Suspension 20 mg/kg, 8 hr, individual animals, listed as NVX-144 Free Base): 14.92 ng/mL and 12.33 ng/mL and 5.37 ng/mL
plasma concentration ([2]; Group 4, PO-Solution 20 mg/kg, 8 hr, individual animals, listed as NVX-144 Free Base): 75.29 ng/mL and 5.57 ng/mL and 13.76 ng/mL
